Results reported in patent US7371207B2 (Wyeth, priority 2002, dated 2008).

Tests used:
[1] = tested on: gene expression in the kidney of mice expressing ΔAF1-ERα; experiment: Real-time PCR of kidney gene expression in ERαERβKO or ERαKO mice expressing ΔAF1-ERα
Procedure: Kidney gene expression values were determined by real-time PCR for each individual animal and normalized for GAPDH expression. The mean expression level in vehicle-treated WT mice was defined as 1 for each gene. *p<0.01 for comparison to vehicle treated animals.
One week later, the animals were ovariectomized. Commencing the day after ovariectomy, each animal received a daily subcutaneous treatment with vehicle (50% DMSO, 50% phosphate buffered saline) or vehicle containing treatments for six weeks. Each group consisted of six or seven animals. Approximately 2 hours following the final treatment, the animals were euthanized with selected tissues frozen in liquid nitrogen for RNA analysis or on dry ice for histology.

[2] = molecular target: ERα (Homo sapiens, UniProt P03372); conditions: cited from earlier work
[3] = tested on: gene expression in the kidney; experiment: Real-time PCR of kidney gene expression in ovariectomized WT mice; conditions: 10 μg/kg/day E2 or 5 mg/kg/day tamoxifen, 6 weeks, FIG. 8
Excerpt: FIGS. 5A-5B show a series of graphs showing expression levels for various genes. […] (B) Uterine wet weights (mg) and gene expression values (mean±SEM).
FIGS. 6A-6D show a series of bar graphs depicting relative expression levels for various genes.
(§1) One week later, the animals were ovariectomized.

[4] = tested on: gene expression in the kidney; experiment: GeneChip microarray survey of E2 regulated gene expression, kidney
Procedure: (§2) FIG. 1 depicts a pattern analysis generated by a GeneChip microarray analysis. […] Two hours following the final dose, the mice were euthanized and 13 tissues removed for RNA preparation. Two independent studies were performed, with total RNA pooled from two groups of three animals for each condition. Gene expression was quantified by GeneChip microarrays using murine U74 sub A arrays. Data were analyzed for patterns indicating either ERα or ERβ dependent regulation as shown. […] The number of genes in each tissue that matched the theoretical induction (↑) or repression (↓) patterns for ERα or ERβ are indicated.
FIGS. 2A-2C show a series of bar graphs showing gene expression levels of known genes regulated in the kidney in an ERα pattern. […] Expression was measured in two independent sets of animals, with two groups of animals for each treatment in each study. A gene name abbreviation is shown above each graph, with the corresponding Unigene designation shown below.
as §1
(§3) GeneChip—Total RNA was prepared separately from each individual organ by using Trizol (Invitrogen) followed by subsequent repurification on Rneasy columns (Qiagen). In general, two pools of RNA were created using equal amounts of RNA from three mice. For small organs such as pituitary, an equal amount of RNA from six animals was combined.
(§4) Target Preparation and Array Hybridization—Total RNA was used to generate biotin labeled cRNA target as described (8) which was hybridized to the murine MG_U74Av2 probe arrays (Affymetrix, Santa Clara, Calif.) for 16 h at 45° C. Eleven biotin-labeled cRNAs at defined concentration were spiked into each hybridization and used to convert average difference values to frequencies expressed as parts per million.
(§5) The resulting data set was queried for genes whose regulation was dependent on ERα or ERβ.

[5] = tested on: gene expression in the uterus; experiment: GeneChip microarray survey of E2 regulated gene expression, uterus
Procedure: as §2, §1, §3, §4, §5

[6] = tested on: gene expression in the pituitary; experiment: GeneChip microarray survey of E2 regulated gene expression, pituitary; type: in vivo, mouse; conditions: mouse, in vivo
Excerpt: as §1

[7] = tested on: gene expression in the kidney; experiment: In situ hybridization of kidney, ovariectomized mice; type: in vivo, mouse; conditions: regulated only in tubule epithelial cells
Excerpt: (§6) No signal was detected with the corresponding sense probes.
(§7) Generally, in situ hybridization comprises the following major steps: (1) fixation of tissue or biological structure to be analyzed; (2) prehybridization treatment of the biological structure to increase accessibility of target nucleic acid, and to reduce nonspecific binding; (3) hybridization of the mixture of nucleic acids to the nucleic acid in the biological structure or tissue; (4) post-hybridization washes to remove nucleic acid fragments not bound in the hybridization, and (5) detection of the hybridized nucleic acid fragments. The probes used in such applications are typically labeled, for example, with radioisotopes or fluorescent reporters. Preferred probes are sufficiently long, for example, from about 50, 100, or 200 nucleotides to about 1000 or more nucleotides, to enable specific hybridization with the target nucleic acid(s) under stringent conditions.
as §1

[8] = tested on: gene expression in the kidney; experiment: In situ hybridization of kidney, ovariectomized rats; type: in vivo, rat
Excerpt: as §6, §7, §1

[9] = 10 μg/kg/day E2 or 5 mg/kg/day tamoxifen, 6 weeks, FIG. 8
[10] = Table II: mouse uterus and human endometrium
[11] = WT versus ΔAF1-ERα mice, E2 versus tamoxifen

Sequence of ERα (P03372 whole entry): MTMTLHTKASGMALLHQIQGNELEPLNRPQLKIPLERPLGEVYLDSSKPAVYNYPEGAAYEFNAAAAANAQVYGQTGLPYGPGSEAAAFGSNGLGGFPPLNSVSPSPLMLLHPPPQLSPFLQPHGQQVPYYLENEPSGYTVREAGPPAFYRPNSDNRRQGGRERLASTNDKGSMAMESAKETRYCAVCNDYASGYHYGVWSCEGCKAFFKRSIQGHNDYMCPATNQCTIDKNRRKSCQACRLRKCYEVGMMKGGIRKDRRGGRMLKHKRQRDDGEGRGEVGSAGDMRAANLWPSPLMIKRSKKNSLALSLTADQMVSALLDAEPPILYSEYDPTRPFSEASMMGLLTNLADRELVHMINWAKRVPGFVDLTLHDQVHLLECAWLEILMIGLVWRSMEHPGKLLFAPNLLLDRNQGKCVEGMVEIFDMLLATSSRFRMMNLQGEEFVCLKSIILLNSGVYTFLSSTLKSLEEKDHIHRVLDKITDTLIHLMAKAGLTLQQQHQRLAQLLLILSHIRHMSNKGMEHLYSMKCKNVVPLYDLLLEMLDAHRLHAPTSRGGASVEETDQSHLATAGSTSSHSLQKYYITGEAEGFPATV

C[C@]12CC[C@@H]3c4ccc(O)cc4C[C@@H](CCCCCCCCC[S+]([O-])CCCC(F)(F)C(F)(F)F)[C@H]3[C@@H]1CC[C@@H]2O (some centres unmarked) [ICI182780]
effect on E2 induction of CYP7B1 in kidney ([1]; 10 μg/kg/day E2 + 5 mg/kg/day ICI182780, 6 weeks, FIG. 8): blocked
effect on E2 regulation of gene expression in the kidney ([1]; 10 μg/kg/day E2 + 5 mg/kg/day ICI182780, FIG. 8): complete antagonist

CCCc1c(-c2ccc(O)cc2)nn(-c2ccc(O)cc2)c1-c1ccc(O)cc1 [PPT, 4-propyl-1,3,5-Tris(4-hydroxy-phenyl)pyrazole]
activation of ERα versus ERβ [2]: exclusively activates ERα but not ERβ

CC/C(=C(\c1ccccc1)c1ccc(OCCN(C)C)cc1)c1ccccc1 [tamoxifen]
BCAT1 expression in kidney, WT mice [3]: induced
CYP7B1 expression in kidney, WT mice [3]: induced by E2 but not by tamoxifen
TF expression in kidney, WT mice [3]: induced
BCAT1 expression in kidney, ERαERβKO mice [1, 9]: did not
TF expression in kidney, ERαERβKO mice (express only ΔAF1-ERα) [1, 9]: Neither compound could induce TF expression

estrogen
ABCC3 expression in kidney ([4]; mRNA level): induced expression
NTT73 expression in kidney ([4]; mRNA level): induced expression
BCAT1 expression in kidney ([4]; mouse, in vivo): induced expression
BHMT expression in kidney ([4]; mouse, in vivo): repressed expression
SAHH expression in kidney ([4]; mouse, in vivo): repressed expression
STAT5A expression in kidney ([4]; mouse, in vivo): induced expression
Tissue Factor expression in kidney ([4]; mouse, in vivo): induced expression
BHMT expression in kidney ([4]; mouse, in vivo, listed as estrogens): A repression by estrogens
Deiodinase, type II expression in uterus [5, 10]: induced
IGFBP4 expression in uterus [5, 10]: induced
Procollagen, type I, alpha 1 expression in uterus [5, 10]: induced
SFRP4 expression in uterus [5, 10]: induced
Scavenger receptor expression in uterus [5, 10]: repressed
vimentin expression in uterus [5, 10]: induced
AI121305 expression in uterus ([5]; mouse, in vivo): induced
ALOX15 expression in uterus ([5]; mouse, in vivo): induced
BCAT1 expression in uterus ([5]; mouse, in vivo): induced
C3 expression in uterus ([5]; mouse, in vivo): induced
CEBPb expression in uterus ([5]; mouse, in vivo): induced
EGR1 expression in uterus ([5]; mouse, in vivo): induced
FOS expression in uterus ([5]; mouse, in vivo): induced
MAP2k1 expression in uterus ([5]; mouse, in vivo): induced
SiAMOX expression in uterus ([5]; mouse, in vivo): induced
FSHb expression in pituitary [6]: repressed
GADD45G expression in pituitary [6]: induced
STAT5B expression in pituitary [6]: induced
FSHb expression in pituitary ([6]; listed as estrogens): Repressed by estrogens
GADD45G expression in pituitary ([6]; listed as estrogens): Induced by estrogens
STAT5B expression in pituitary ([6]; listed as estrogens): Induced by estrogens
GADD45G expression in kidney [7]: induced expression
regulation of STAT5A and GADD45G in rat kidney ([8]; 20 μg/kg/day E2 six weeks, FIG. 4): occurred in rat kidney juxtamedullary region
GADD45G regulation in kidney across species ([8]; mouse and rat): Regulated in multiple species (mouse and rat)
STAT5A regulation in kidney across species ([8]; mouse and rat): Regulated in multiple species (mouse and rat)
mechanism of induction of BCAT1 in kidney (ERα AF1 or AF2) [1, 11]: Mechanism is ERα AF1 + AF2 dependent
mechanism of induction of CYP7B1 in kidney (ERα AF1 or AF2) [1, 11]: Mechanism is ERα AF2 dependent
mechanism of induction of TF (Tissue Factor) in kidney (ERα AF1 or AF2) [1, 11]: Mechanism is ERα AF1 dependent
